Format in all cases: in vivo
Settings in all cases: rated 30 days after application

In data set [1] the test system is Scirpus juncoides. Put plainly: Submersion test, treatment 3 days after transplantation: herbicidal effect. How it is done: (§1) A mixture consisting of 57 parts by weight of talc and 40 parts by weight of bentonite as carrier and 3 parts by weight of sodium alkylbenzenesulfonate as surfactant was pulverized and mixed uniformly to obtain a carrier for wettable powder. Each herbicidal composition was prepared by uniformly pulverizing and mixing 90 parts by weight of the carrier for wettable powder and 10 parts by weight of the benzothiophene derivative produced in each example.
(§2) Seeds of Scirpus juncoides were sowed onto paddy field soil in a Wagner pot of 1/2000 are. Then, rice seedlings of 2.5 leaf stage were transplanted in the soil. Water was pored into the pot so as to submerge the soil at a depth of 3 cm. The pot was placed in a greenhouse maintained at 20 to 25° C. for vegetation. After 3 days from transplantation of the rice seedlings, a predetermined amount of the herbicidal composition prepared in the step [1] was applied to the pot. After 30 days from the application of the herbicidal composition, the herbicidal effect and injury to the paddy rice were determined.
(§3) The herbicidal effect and the injury to crops in the above tests (1) and (2) were evaluated based on the following ratings.
(§4) The degree of weed control (%) was calculated from the weights of the above-ground parts of fresh weeds in the treated area and the untreated area using the following equation:
(§5) Degree of weed control (%)=[1−(weight of weeds in treated area)/(weight of weeds in untreated area)]×100
(§6) The herbicidal effect was determined according to the following ratings: […]

For data set [2], the system named is Scirpus juncoides. Put plainly: Submersion test, treatment 10 days after transplantation: herbicidal effect. Here is the method:
as §1
as §2, with “vegetation. After 10 days from” for “vegetation. After 3 days from”
as §3, §4, §5, §6

The subject of data set [3] is paddy rice. Put plainly: Submersion test, treatment 3 days after transplantation: injury to paddy rice. Set-up: key: 0: No injury; 1: Substantially no injury; 2: Slight injury; 3: Some injury; 4: Remarkable injury; 5: Almost all crops dead. Here is the method: A mixture consisting of 57 parts by weight of talc and 40 parts by weight of bentonite as carrier and 3 parts by weight of sodium alkylbenzenesulfonate as surfactant was pulverized and mixed uniformly to obtain a carrier for wettable powder. […] Then, rice seedlings of 2.5 leaf stage were transplanted in the soil. Water was pored into the pot so as to submerge the soil at a depth of 3 cm. The pot was placed in a greenhouse maintained at 20 to 25° C. for vegetation. […] After 30 days from the application of the herbicidal composition, the herbicidal effect and injury to the paddy rice were determined. […] The injury to crops was evaluated according to the following ratings: [table]

Regarding `CSC1Cc2c(ccc(C(=O)C3=C(Cl)CCCC3=O)c2Cl)S1(=O)=O` (stereo not drawn) [Compound No. 17, 4-chloro-2-methylthio-5-(3-chloro-1-oxo-2-cyclohexen-2-yl)carbonyl-2,3-dihydrobenzothiophene 1,1-dioxide], the “Herbicidal effect Scirpus juncoides” value in data set [1] (application rate 100 g/ha), in data set [1] (application rate 200 g/ha), in data set [2] (application rate 100 g/ha) and in data set [2] (application rate 200 g/ha) was 5 (90% or higher (almost completely dead)) each time. The Injury paddy rice in data set [3] (application rate 100 g/ha) and in data set [3] (application rate 200 g/ha) was 0 in each case.

`CS(=O)(=O)C1Cc2c(ccc(C(=O)C3=C(Cl)CCCC3=O)c2Cl)S1(=O)=O` (stereo not drawn) [Compound No. 18, 4-chloro-2-methanesulfonyl-5-(3-chloro-1-oxo-2-cyclohexen-2-yl)carbonyl-2,3-dihydrobenzothiophene 1,1-dioxide]: the “Herbicidal effect Scirpus juncoides” value is on record as 4 (70% or higher but less than 90%) in data set [1] (application rate 100 g/ha), 5 (90% or higher (almost completely dead)) in data set [1] (application rate 200 g/ha), 4 (70% or higher but less than 90%) in data set [2] (application rate 100 g/ha) and 5 (90% or higher (almost completely dead)) in data set [2] (application rate 200 g/ha). The Injury paddy rice in data set [3] (application rate 100 g/ha) and in data set [3] (application rate 200 g/ha) was 0 throughout.

On to `CCSC1Cc2c(ccc(C(=O)C3=C(Cl)CCCC3=O)c2Cl)S1(=O)=O` (stereo not drawn) [Compound No. 19, 4-chloro-2-ethylthio-5-(3-chloro-1-oxo-2-cyclohexen-2-yl)carbonyl-2,3-dihydrobenzothiophene 1,1-dioxide], for which the “Herbicidal effect Scirpus juncoides” value in data set [1] (application rate 100 g/ha) is on record as 5 (90% or higher (almost completely dead)); in data set [1] (application rate 200 g/ha) it was 5 (90% or higher (almost completely dead)); in data set [2] (application rate 100 g/ha), 4 (70% or higher but less than 90%); in data set [2] (application rate 200 g/ha) it was 5 (90% or higher (almost completely dead)). Also, the Injury paddy rice in data set [3] (application rate 100 g/ha) and in data set [3] (application rate 200 g/ha) was 0 throughout.

For `COCCSC1Cc2c(ccc(C(=O)C3=C(Cl)CCCC3=O)c2Cl)S1(=O)=O` (stereo not drawn) [Compound No. 25, 4-chloro-2-(2-methoxyethyl)thio-5-(3-chloro-1-oxo-2-cyclohexen-2-yl)carbonyl-2,3-dihydrobenzothiophene 1,1-dioxide], the “Herbicidal effect Scirpus juncoides” value in data set [1] (application rate 100 g/ha) was 4 (70% or higher but less than 90%); in data set [1] (application rate 200 g/ha), 5 (90% or higher (almost completely dead)); in data set [2] (application rate 100 g/ha), 4 (70% or higher but less than 90%); in data set [2] (application rate 200 g/ha) it was 5 (90% or higher (almost completely dead)). The Injury paddy rice in data set [3] (application rate 100 g/ha) and in data set [3] (application rate 200 g/ha) was 0 in each case.

For the compound `COC(=O)CSC1Cc2c(ccc(C(=O)C3=C(Cl)CCCC3=O)c2Cl)S1(=O)=O` (stereo not drawn) [Compound No. 27, 4-chloro-2-(methoxycarbonylmethyl)thio-5-(3-chloro-1-oxo-2-cyclohexen-2-yl)carbonyl-2,3-dihydrobenzothiophene 1,1-dioxide], the “Herbicidal effect Scirpus juncoides” value was 4 (70% or higher but less than 90%) in data set [1] (application rate 100 g/ha), 5 (90% or higher (almost completely dead)) in data set [1] (application rate 200 g/ha), 4 (70% or higher but less than 90%) in data set [2] (application rate 100 g/ha) and 5 (90% or higher (almost completely dead)) in data set [2] (application rate 200 g/ha). In addition, the Injury paddy rice in data set [3] (application rate 100 g/ha) and in data set [3] (application rate 200 g/ha) was 0 throughout.

With `CSC1Cc2c(ccc(C(=O)C3=C(SCCO)CCCC3=O)c2Cl)S1(=O)=O` (stereo not drawn) [Compound No. 31, 4-chloro-2-methylthio-5-[3-(2-hydroxyethyl)thio-1-oxo-2-cyclohexen-2-yl]carbonyl-2,3-dihydrobenzothiophene 1,1-dioxide], the “Herbicidal effect Scirpus juncoides” value in data set [1] (application rate 100 g/ha), in data set [1] (application rate 200 g/ha), in data set [2] (application rate 100 g/ha) and in data set [2] (application rate 200 g/ha) was 5 (90% or higher (almost completely dead)) in each case. The Injury paddy rice in data set [3] (application rate 100 g/ha) and in data set [3] (application rate 200 g/ha) was 0 throughout.

As to `CSC1Cc2c(ccc(C(=O)C3=C(SCC(C)O)CCCC3=O)c2Cl)S1(=O)=O` (stereo not drawn) [Compound No. 33, 4-chloro-2-methylthio-5-[3-(2-hydroxy-1-propyl)thio-1-oxo-2-cyclohexen-2-yl]carbonyl-2,3-dihydrobenzothiophene 1,1-dioxide], the “Herbicidal effect Scirpus juncoides” value is 4 (70% or higher but less than 90%) in data set [1] (application rate 100 g/ha), 5 (90% or higher (almost completely dead)) in data set [1] (application rate 200 g/ha), 4 (70% or higher but less than 90%) in data set [2] (application rate 100 g/ha) and 5 (90% or higher (almost completely dead)) in data set [2] (application rate 200 g/ha). Also, the Injury paddy rice in data set [3] (application rate 100 g/ha) and in data set [3] (application rate 200 g/ha) was 0 throughout.

`CSC1Cc2c(ccc(C(=O)C3=C(SCCOC(C)=O)CCCC3=O)c2Cl)S1(=O)=O` (stereo not drawn) [Compound No. 34, 4-chloro-2-methylthio-5-[3-(2-acetoxyethyl)thio-1-oxo-2-cyclohexen-2-yl]carbonyl-2,3-dihydrobenzothiophene 1,1-dioxide]: the “Herbicidal effect Scirpus juncoides” value is reported as 4 (70% or higher but less than 90%) in data set [1] (application rate 100 g/ha), 5 (90% or higher (almost completely dead)) in data set [1] (application rate 200 g/ha), 4 (70% or higher but less than 90%) in data set [2] (application rate 100 g/ha) and 5 (90% or higher (almost completely dead)) in data set [2] (application rate 200 g/ha). Moreover, the Injury paddy rice in data set [3] (application rate 100 g/ha) and in data set [3] (application rate 200 g/ha) was 0 throughout.

Regarding `CSC1Cc2c(ccc(C(=O)C3=C(Sc4nccn4C)CCCC3=O)c2Cl)S1(=O)=O` (stereo not drawn) [Compound No. 35, 4-chloro-2-methylthio-5-[3-(1-methylimidazol-2-yl)thio-1-oxo-2-cyclohexen-2-yl]carbonyl-2,3-dihydrobenzothiophene 1,1-dioxide], the “Herbicidal effect Scirpus juncoides” value was 4 (70% or higher but less than 90%) in data set [1] (application rate 100 g/ha), 5 (90% or higher (almost completely dead)) in data set [1] (application rate 200 g/ha), 4 (70% or higher but less than 90%) in data set [2] (application rate 100 g/ha) and 5 (90% or higher (almost completely dead)) in data set [2] (application rate 200 g/ha). Further, the Injury paddy rice in data set [3] (application rate 100 g/ha) and in data set [3] (application rate 200 g/ha) was 0 throughout.

On to `CCOC1=C(C(=O)c2ccc3c(c2Cl)CC(SC)S3(=O)=O)C(=O)CCC1` (stereo not drawn) [Compound No. 37, 4-chloro-2-methylthio-5-(3-ethoxy-1-oxo-2-cyclohexen-2-yl)carbonyl-2,3-dihydrobenzothiophene 1,1-dioxide], for which the “Herbicidal effect Scirpus juncoides” value in data set [1] (application rate 100 g/ha), in data set [1] (application rate 200 g/ha), in data set [2] (application rate 100 g/ha) and in data set [2] (application rate 200 g/ha) was 5 (90% or higher (almost completely dead)) each time. Besides, the Injury paddy rice in data set [3] (application rate 100 g/ha) and in data set [3] (application rate 200 g/ha) was 0 in each case.

Turning to `CSC1Cc2c(ccc(C(=O)C3=C(N4CCC=N4)CCCC3=O)c2Cl)S1(=O)=O` (stereo not drawn) [Compound No. 38, 4-chloro-2-methylthio-5-[3-(4,5-dihydropyrazol-1-yl)-1-oxo-2-cyclohexen-2-yl]carbonyl-2,3-dihydrobenzothiophene 1,1-dioxide], the “Herbicidal effect Scirpus juncoides” value in data set [1] (application rate 100 g/ha) is listed as 4 (70% or higher but less than 90%); in data set [1] (application rate 200 g/ha), 5 (90% or higher (almost completely dead)); in data set [2] (application rate 100 g/ha), 4 (70% or higher but less than 90%); in data set [2] (application rate 200 g/ha), 5 (90% or higher (almost completely dead)). For the same compound, the Injury paddy rice in data set [3] (application rate 100 g/ha) and in data set [3] (application rate 200 g/ha) was 0 in each case.

(Values after patent US20040058957A1, “Benzothiophene derivatives and herbicidal compositions containing the same” (priority 2000, published 2004).)
